Experimental findings from patent publication US20120108668A1, “METABOLIC PROFILES” (priority 2009, published 2012) are described below.

One data set has as its system AIA Lewis rats. Nature of the data set: Treatment study of the active compound in AIA Lewis rats; serum metabolite profile by GC/TOFMS and OPLS. To be noted: 1 mg, 3 mg or 10 mg active compound. The class given is in vivo. An excerpt: This example illustrates the potency of the active compound and its therapeutically active acid addition salts for treatment of […].
AIA was induced in a total of 21 Lewis rats were included in the treatment study. Samples used consist of the following blood samples: • 22 samples from AIA Lewis rats (one of the rats was sampled twice) • 26 samples from treated AIA Lewis rats (five of the rats was sampled twice)
Different treatments were distributed in the AIA subjects as follows: • 5 subjects received 1 mg active compound • 5 subjects received 3 mg active compound • 6 subjects received 10 mg active compound • 5 subjects received 1 mg methotrexate Extraction of Metabolites from Serum
(§1) Extraction of metabolites from serum samples was essentially performed as the method described by A et al. (2005). 630 μl of MeOH:H2O (9:1 V:V) including internal standards was added to 70 μl of serum. The solution was vortex mixed for 10 s, kept on ice for 10 min, and then vigorously extracted at a frequency of 30 Hz for 3 min using a MM301 vibration Mill (Retsch GmbH & Co. KG, Haan, Germany. After […] on ice, the samples were centrifuged at 19 600 g for 10 min at 4° C. 200 μl of the supernatant was transferred to a GC vial, and 50 μl was transferred to a LC/MS vial and evaporated to dryness.
GC/TOFMS analysis and the Data processing of MS-data was carried out as in Example 1 above.

A further data set concerns AIA DA rats. Nature of the data set: Treatment of RA in an AIA rat model with an experimental substance; serum metabolite profile by GC/TOFMS and OPLS-DA. It is filed as in vivo, Dark Agouti (DA) rats. To be noted: treated vs untreated; for regulation of endogenous metabolite levels in treated animals (OPLS-DA loadings): FIG. 7B.
From the text: Treatment of RA in an AIA Rat Model with an Experimental Substance (Arginine)
AIA was induced in three Dark Agouti (DA) rats and the rats were then given treatment with an experimental substance.
The rat model samples used consist of the following blood samples: • 3 samples from AIA DA rats • 4 samples (one of the rats was sampled twice) from AIA DA rats treated with the experimental substance. Extraction of Metabolites from Serum
as §1
Prior GC/MS analysis the samples were derivatised with 30 μL of methoxyamine hydrochloride (15 mg mL-1) in pyridine by shaking for 10 min at 5° C., then incubating them for 16 h at room temperature. The samples were then trimethylsilylated by adding 30 μL of […] (MSTFA) with 1% TMCS and incubating them for 1 h at room temperature. After silylation, 30 μL of heptane (containing 0.5 μg methyl stearate as internal standard) was added. 0.1 μl of derivatized sample was injected split less by an Agilent 7683 Series Autosampler (Agilent, Atlanta; GA, USA) into an Agilent 6980 GC equipped with a 10 m×0.18 mm ID, fused silica capillary column chemically bonded with 0.18 μm DB5-MS stationary phase (J&W Scientific, Folsom, Calif., USA). The injector temperature was set at 270° C. Helium was used as carrier gas at a constant flow rate of 1 ml/min through the column. For every analysis, the purge time was set to 60 s at a purge flow rate of 20 ml min-1 and an equilibration time of 1 min. […]

`COc1ccc(C=NNC(=N)N)c(Cl)c1OC` [active compound, N-(2-chloro-3,4-dimethoxybenzylideneamino)guanidine] had a melting point of 198 to 200 °C. The “levels of the metabolites associated with AD, effect of treatment” value in the data set on AIA Lewis rats is on record as “significantly affected”.

Turning to `N=C(N)NCCC[C@H](N)C(=O)O` [experimental substance, Arginine], the “separation of untreated and treated AIA animals in the OPLS-DA scores scatter plot (patterns of endogenous metabolites)” value with AIA DA rats (FIG. 7A) is recorded as “well separated”. The “regulation of endogenous metabolite levels in treated animals (OPLS-DA loadings)” value with AIA DA rats was “Almost all metabolites are up regulated”; in the data set on AIA DA rats (listed as administered substance) it was “up regulation of many of the metabolites”.
